The subject of this test is anti-DNP antibody. Nature of the test: FACS bead model: DNP beads versus acetyl beads with anti-DNP antibody in sera. It is filed as binding. To be noted: FIG. 40; 1,000 ug/mL sera concentration. The procedure:
The Mean fluorescence intensity (MFI) separation was greatest at the higher dilution of 1,000 ug/mL sera.

`O=[N+]([O-])c1ccc(NCCO)c([N+](=O)[O-])c1` [ethanolamine-DNP]: the “competition with binding of DNP (on a plate) to anti-DNP antibody” value is listed as “direct competition”.
